Reference: patent US5214046A, “Substituted aminoalkoxybenzene anti-fungicidal compositions and use” (Hoffmann-La Roche Inc., priority 1989, dated 1993)
Where a name gives a salt, the structure may show the parent alone. Read-outs that look alike come from different tables or passages of the source.

Assays:
[1] = Acute toxicity in the case of subcutaneous administration to mice; details: mouse, in vivo, sc
Protocol: The IC50 values are determined graphically and are given in μg of test substance per ml. Table I contains IC50 values determined in the above test for representative members of the class of compound defined by formula I as well as data concerning the acute toxicity in the case of subcutaneous administration to mice (LD50 in mg/kg).

[2] = target: 2,3-epoxysqualene-lanosterol cyclase (Candida albicans, UniProt Q04782); experiment: Inhibition of 2,3-epoxysqualene-lanosterol cyclase from Candida albicans (cell-free extract, 14C-squalene epoxide); type: biochemical
Candida albicans = experiment: Agar dilution method, MIC alone and in combination with sterol biosynthesis inhibitors, FIC; type: cell-based; details: for MIC: Candida albicans, 48 h, alone, 37° C., 2 days
[3] = C. albicans cell-free extract, pH 6.9, 30°, 1 hour, read-out: IC50 (converted)

Chain of 2,3-epoxysqualene-lanosterol cyclase (Q04782 whole entry): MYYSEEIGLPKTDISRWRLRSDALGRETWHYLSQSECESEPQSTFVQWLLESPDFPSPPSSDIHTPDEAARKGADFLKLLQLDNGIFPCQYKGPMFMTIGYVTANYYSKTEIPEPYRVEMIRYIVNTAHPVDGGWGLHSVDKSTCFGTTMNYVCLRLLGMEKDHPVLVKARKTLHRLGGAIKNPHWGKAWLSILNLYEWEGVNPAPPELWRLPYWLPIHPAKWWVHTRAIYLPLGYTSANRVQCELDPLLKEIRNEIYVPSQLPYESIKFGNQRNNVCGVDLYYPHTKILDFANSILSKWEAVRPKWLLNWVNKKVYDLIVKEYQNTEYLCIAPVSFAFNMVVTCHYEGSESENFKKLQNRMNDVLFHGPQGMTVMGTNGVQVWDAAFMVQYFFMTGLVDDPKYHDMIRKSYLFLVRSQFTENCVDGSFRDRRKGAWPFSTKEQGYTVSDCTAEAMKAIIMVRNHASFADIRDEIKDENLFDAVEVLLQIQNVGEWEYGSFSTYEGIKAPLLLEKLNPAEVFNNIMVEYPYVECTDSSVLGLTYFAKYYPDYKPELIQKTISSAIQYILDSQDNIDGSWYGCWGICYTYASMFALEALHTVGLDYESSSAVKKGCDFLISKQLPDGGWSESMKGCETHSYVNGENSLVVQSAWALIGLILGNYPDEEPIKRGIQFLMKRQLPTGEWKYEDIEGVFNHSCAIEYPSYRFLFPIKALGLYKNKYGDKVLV

Compound: CN(C)CCCCOc1ccc(C(=O)c2ccccc2)cc1 [Compound 1, 4-[[4-(dimethylamino)butyl]oxy]benzophenone]
- LD50 [1]: > 4000 mg/kg
- IC50 [2]: 2860 nM

Compound: CN(C)CCCCCOc1ccc(C(=O)c2ccccc2)cc1 [Compound 2, 4-[(5-(dimethylamino)pentyl)oxy]benzophenone]
- IC50 [2, 3]: 514 nM

Compound: CN(C)CCCCCCOc1ccc(C(=O)c2ccccc2)cc1 [Compound 3, 4-[(6-dimethylamino)hexyl)oxy]benzophenone hydrochloride]
- IC50 [2, 3]: 461 nM

Compound: CCN(CC)CCCCCCOc1cccc(C(=O)CCc2ccccc2)c1 [Compound 4, 3'-[[6-(diethylamino)hexyl]oxy]-3-phenypropiophenone]
- IC50 [2, 3]: 1570 nM

Compound: CN(C)CCCCCCOc1ccc(C(=O)/C=C/c2ccccc2)cc1 [Compound 5, (E)-4'-[[6-(dimethylamino)hexyl]oxy]-3-phenylacrylophenone]
- IC50 [2, 3]: 1710 nM

Compound: CN(C)CCCCCCOc1ccc(C(=O)Cc2ccccc2)cc1 [Compound 6]
- IC50 [2, 3]: 191 nM

Compound: CCN(CC)CCCCCCOc1ccc(C(=O)CCc2ccccc2)cc1 [Compound 7, 4'-[[6-(diethylamino)hexyl]oxy]-3-phenylpropiophenone]
- IC50 [2, 3]: 708 nM

Compound: CN(C)CCCCCCOc1ccc(C(=O)CCc2ccccc2)cc1 [Compound 8, 4'-[[6-(dimethylamino)hexyl]oxy]-3-phenylpropiophenone]
- IC50 [2, 3]: 990 nM

Compound: CCN(CC)CCCCCCOc1ccc(C(=O)c2ccccc2)cc1 [Compound 9, 4'-[[6-(diethylamino)hexyl]oxy]benzophenone]
- IC50 [2, 3]: 1020 nM

Compound: CN(C)CCCCCCOc1cccc(C(=O)/C=C/c2ccccc2)c1 [Compound 10, (E)-3'-[[6-(dimethylamino)hexyl]oxy]-3-phenylacrylophenone]
- IC50 [2, 3]: 6540 nM

Compound: CN(C)CCCCCCOc1cccc(C(=O)CCc2ccccc2)c1 [Compound 11]
- IC50 [2, 3]: 2830 nM

Compound: CN(C)CCCCCCOc1ccc(C(=O)c2ccc(F)cc2)cc1 [Compound 12, 4-[[6-(dimethylamino)hexyl]oxy]-4'-fluorobenzophenone]
- IC50 [2, 3]: 524 nM

Compound: CN(C)CCCCCCOc1cccc(C(=O)c2ccccc2)c1 [Compound 13, 3-[(6-(dimethylamino)hexyl)oxy]benzophenone]
- IC50 [2, 3]: 6150 nM

Compound: CCN(CC)CCCCCCOc1ccc(C(=O)C#Cc2ccccc2)cc1 [Compound 14, 4'-[[6-(diethylamino)hexyl]oxy]-3-phenylpropiolophenone]
- IC50 [2, 3]: 8210 nM

Compound: CN(C)CCCCCCOc1ccc(C(=O)c2c(F)c(F)c(F)c(F)c2F)cc1 [Compound 15, 4'-[[6-(dimethylamino)hexyl]oxy]-2,3,4,5,6-pentafluorobenzophenone]
- IC50 [2, 3]: 2140 nM

Compound: CCCN(CCC)CCCCCCOc1ccc(C(=O)c2ccccc2)cc1 [Compound 16, 4-[[6-(dipropylamino)hexyl]oxy]benzophenone]
- IC50 [2, 3]: 2410 nM

Compound: O=C(c1ccccc1)c1ccc(OCCCCCCN2CCC2)cc1 [Compound 17, 4-[(6-(azetidinyl)hexyl)oxy]benzophenone]
- IC50 [2]: 1780 nM

Compound: CN(C)CCCCCCCOc1ccc(C(=O)c2ccccc2)cc1 [Compound 18, 4-[[7-(dimethylamino)heptyl]oxy]benzophenone]
- IC50 [2, 3]: 353 nM

Compound: CN(C)CCCCCCCCOc1ccc(C(=O)c2ccccc2)cc1 [Compound 19]
- IC50 [2, 3]: 1190 nM

Compound: CN(C)CCCCCCCCCOc1ccc(C(=O)c2ccccc2)cc1 [Compound 20, 4-[[9-(dimethylamino)nonyl]oxy]benzophenone]
- IC50 [2, 3]: 4350 nM

Compound: CN(C)CCCCCCCCCCOc1ccc(C(=O)c2ccccc2)cc1 [Compound 21, 4-[[10-(dimethylamino)decyl]oxy]benzophenone]
- IC50 [2, 3]: 5240 nM

Compound: O=C(c1ccccc1)c1ccc(OCCCCCCN2CCCC2)cc1 [Compound 22, 4-[(6-(pyrrolidino)hexyl)oxy]benzophenone]
- IC50 [2, 3]: 967 nM

Compound: CN(C)CCCCCCOc1ccc(CC(=O)c2ccccc2)cc1 [Compound 23, 2-[4-[[6-(dimethylamino)hexyl]oxy]phenyl]acetophenone]
- IC50 [2, 3]: 560 nM

Compound: CNCCCCCCOc1ccc(C(=O)c2ccccc2)cc1 [Compound 24, 4-[[6-(methylamino)hexyl]oxy]benzophenone]
- IC50 [2, 3]: 963 nM

Compound: Cc1cc(C(=O)c2ccccc2)ccc1OCCCCCCN(C)C [Compound 25, 4-[[6-(dimethylamino)hexyl]oxy]-3-methylbenzophenone]
- IC50 [2, 3]: 560 nM

Compound: Cc1cccc(C(=O)c2ccc(OCCCCCCN(C)C)cc2)c1C [Compound 26, 4-[[6-(dimethylamino)hexyl]oxy]-2',3'-dimethylbenzophenone]
- IC50 [2, 3]: 1190 nM

Compound: CN(C)CCCCCCOc1ccc(C(=O)c2ccc(Cl)cc2Cl)cc1 [Compound 27, 4-[[6-(dimethylamino)hexyl]oxy]-2',4'-dichlorobenzophenone]
- IC50 [2, 3]: 659 nM

Compound: CN(C)CCCCCCOc1ccc(C(=O)c2cc(Cl)cc(Cl)c2)cc1 [Compound 28, 4-[[6-(dimethylamino)hexyl]oxy]-3',5'-dichlorobenzophenone]
- IC50 [2, 3]: 3800 nM

Compound: CN(C)CCCCCCOc1ccc(C(=O)c2ccc([N+](=O)[O-])cc2)cc1 [Compound 29, 4-[[6-(dimethylamino)hexyl]oxy]-4'-nitrobenzophenone]
- IC50 [2, 3]: 756 nM

Compound: CN(C)CCCCCCOc1ccc(C(=O)c2ccc(Cl)cc2Cl)cc1Cl [Compound 30, 4-[[6-(dimethylamino)hexyl]oxy]-2',3,4'-trichlorobenzophenone]
- IC50 [2, 3]: 233 nM

Compound: C=CCN(C)CCCCCCOc1ccc(C(=O)c2ccccc2)cc1 [Compound 31, 4-[[6-(allylmethylamino)hexyl]oxy]benzophenone]
- LD50 [1]: 1000 to 2000 mg/kg
- IC50 [2]: 125 nM

Compound: C=CCN(C)CCCCCCOc1ccc(C(=O)Cc2ccccc2)cc1 [Compound 32, 4-[[6-(allylmethylamino)hexyl]oxy]-2-phenylacetophenone]
- IC50 [2]: 95.8 nM

Compound: C=CCN(C)CCCCCCOc1ccc(C(=O)c2ccc(F)cc2)cc1 [Compound 33, 4-[[6-(allylmethylamino)hexyl]oxy]-4'-fluorobenzophenone]
- IC50 [2]: 83.9 nM

Compound: C=CCN(C)CCCCCCOc1ccc(C(=O)c2ccccc2)cc1C [Compound 34, 4-[[6-(allylmethylamino)hexyl]oxy]-3-methylbenzophenone]
- IC50 [2]: 87.5 nM

Compound: C=CCN(C)CCCCCCOc1ccc(C(=O)c2cccc(C)c2C)cc1 [Compound 35, 4-[[6-(allylmethylamino)hexyl]oxy]-2',3'-dimethylbenzophenone]
- IC50 [2]: 224 nM

Compound: C=CCN(C)CCCCCCOc1ccc(C(=O)c2ccc(Cl)cc2Cl)cc1 [Compound 36, 4-[[6-(allylmethylamino)hexyl]oxy]-2',4'-dichlorobenzophenone]
- IC50 [2]: 131 nM

Compound: C=CCN(C)CCCCCCOc1ccc(C(=O)c2cc(Cl)cc(Cl)c2)cc1 [Compound 37, 4-[[6-(allylmethylamino)hexyl]oxy]-3',5'-dichlorobenzophenone]
- IC50 [2]: 809 nM

Compound: C=CCN(C)CCCCCCOc1ccc(C(=O)c2ccc([N+](=O)[O-])cc2)cc1 [Compound 38, 4-[[6-(allylmethylamino)hexyl]oxy]-4'-nitrobenzophenone]
- IC50 [2]: 101 nM

Compound: C=CCN(C)CCCCCCOc1ccc(C(=O)c2ccccc2)cc1Cl [Compound 39, 4-[[6-(allylmethylamino)hexyl]oxy]-3-chlorobenzophenone]
- IC50 [2]: 64.8 nM

Compound: C=CCN(C)CCCCCCOc1ccc(C(=O)c2ccc(Cl)cc2Cl)cc1Cl [Compound 40, 4-[[6-(allylmethylamino)hexyl]oxy]-2',3,4'-trichlorobenzophenone]
- IC50 [2]: 57.2 nM

Compound: C=CCN(C)C/C=C/COc1ccc(C(=O)c2ccccc2)cc1 [Compound 41, trans-4-[[4-(allylmethylamino)-2-butenyl]oxy]benzophenone]
- IC50 [2]: 62.2 nM

Compound: C=CCN(C)C/C=C/COc1ccc(C(=O)c2ccc(Cl)cc2Cl)cc1 [Compound 42, trans-4-[[4-(allylmethylamino)-2-butenyl]oxy]-2',4'-dichlorobenzophenone]
- IC50 [2]: 17.9 nM

Compound: CN(C)C/C=C/COc1ccc(C(=O)c2ccccc2)cc1 [Compound 43, trans-4-[[4-(dimethylamino)-2-butenyl]oxy]benzophenone]
- IC50 [2, 3]: 745 nM

Compound: CN(C)C/C=C/COc1ccc(C(=O)c2ccc(Cl)cc2Cl)cc1 [Compound 44, trans-4-[[4-(dimethylamino)-2-butenyl]oxy]-2',4'-dichlorobenzophenone]
- IC50 [2, 3]: 178 nM

Compound: CC(=O)N1CCN(c2ccc(OCC3COC(Cn4ccnc4)(c4ccc(Cl)cc4Cl)O3)cc2)CC1 (stereo not drawn) [Ketoconazole, reference compound]
- MIC in combination (Candida albicans; C. albicans B4, Compound 6 + Ketoconazole in combination): 0.155 µg/mL
- MIC in combination (Candida albicans; C. albicans B5, Compound 6 + Ketoconazole in combination): 0.31 µg/mL
- MIC in combination (Candida albicans; C. albicans H12, Compound 6 + Ketoconazole in combination): 0.155 µg/mL
- MIC in combination (Candida albicans; C. albicans H29, Compound 6 + Ketoconazole in combination): 0.03 µg/mL
- MIC in combination (Candida albicans; C. albicans H42, Compound 6 + Ketoconazole in combination): 0.155 µg/mL
- MIC (Candida albicans; C. albicans B4): 5 µg/mL
- MIC (Candida albicans; C. albicans B5): 5 µg/mL
- MIC (Candida albicans; C. albicans H12): 5 µg/mL
- MIC (Candida albicans; C. albicans H29): 0.25 µg/mL
- MIC (Candida albicans; C. albicans H42): 10 µg/mL

Compound: CN(C/C=C/C#CC(C)(C)C)Cc1cccc2ccccc12 [Terbinafin, reference compound]
- MIC in combination (Candida albicans; C. albicans B4, Compound 6 + Terbinafin in combination): 0.55 µg/mL
- MIC in combination (Candida albicans; C. albicans B5, Compound 6 + Terbinafin in combination): 0.75 µg/mL
- MIC in combination (Candida albicans; C. albicans H12, Compound 6 + Terbinafin in combination): 6.25 µg/mL
- MIC in combination (Candida albicans; C. albicans H29, Compound 6 + Terbinafin in combination): 1.55 µg/mL
- MIC in combination (Candida albicans; C. albicans H42, Compound 6 + Terbinafin in combination): 6.25 µg/mL
- MIC (Candida albicans; C. albicans B4): 12.5 µg/mL
- MIC (Candida albicans; C. albicans B5): 6.25 µg/mL
- MIC (Candida albicans; C. albicans H12): 100 µg/mL
- MIC (Candida albicans; C. albicans H29): 6.25 µg/mL
- MIC (Candida albicans; C. albicans H42): 100 µg/mL
